Experimental data as given in patent US11498896B2 (The Broad Institute, Inc., priority 2014, dated 2022).

Experiments:
[1] = biological target: T1, human D2R/β-arrestin (Homo sapiens (Human), UniProt P14416); test: β-arrestin agonist assay (PathHunter); format: cell-based; details: CHO-K1 cells expressing human D2R/β-arrestin; agonist mode
Procedure: The detection reagent (9.6 μL, Buffer:Emerald II:Galactor-Star in a 19:5:1 ratio, i.e., 14.06 mL:3.7 mL:0.74 mL=18.5 mL) was then added to the agonist plates.

[2] = biological target: T1, human D2R/β-arrestin; test: Gi/cAMP agonist assay (Lance Ultra cAMP, forskolin); format: cell-based; details: CHO-K1 cells expressing human D2R/β-arrestin; agonist mode, 2.5 μM forskolin
Procedure: Eu-cAMP tracer solution (10 μl, PerkinElmer, 360 μl of Tracer in 17.64 ml kit buffer) and ULight-anti-cAMP solution (10 μl, 120 μL antibody in 17.88 ml kit buffer) was then added to each well.

[3] = biological target: T1, human D2R/β-arrestin; test: cell-based; details: β-arrestin Antagonist, CHO-K1 cells expressing human D2R/β-arrestin; antagonist mode, quinpirole 130 nM
Procedure: Cells were prepared for assays by growing cultures for up to 2 weeks (from about 6-20 passages). A vial of frozen cells was thawed in a water bath held at 37° C. The cells were then transferred into a 50 ml tube with 10 ml growth media. The vial was rinsed with growth media and the contents transferred to the 50 ml tube. The 50 ml tube was centrifuged at 1200 rpm for 5 minutes at room temperature. […] When the cells reached about 90% confluence (approximately 3 days between passages), the cells were passaged and used for either the agonist or antagonist assays as described below.
The cells were prepared for β-arrestin assays as described above. The assays were performed using a PathHunter® β-Arrestin Detecting Kit (DiscoveRX). The cells were grown on 225 mm dishes, then washed once with 1×PBS (Cellgro), followed by digestion with 2.5 ml 1× Detachment reagent (DRX 92-0009) for approximately 2 minutes.

[4] = biological target: T1, human D2R/β-arrestin; test: cell-based; details: cAMP Antagonist, CHO-K1 cells expressing human D2R/β-arrestin; antagonist mode, 2.5 μM forskolin and 2.7 nM quinpirole

T1 sequence (P14416 whole entry): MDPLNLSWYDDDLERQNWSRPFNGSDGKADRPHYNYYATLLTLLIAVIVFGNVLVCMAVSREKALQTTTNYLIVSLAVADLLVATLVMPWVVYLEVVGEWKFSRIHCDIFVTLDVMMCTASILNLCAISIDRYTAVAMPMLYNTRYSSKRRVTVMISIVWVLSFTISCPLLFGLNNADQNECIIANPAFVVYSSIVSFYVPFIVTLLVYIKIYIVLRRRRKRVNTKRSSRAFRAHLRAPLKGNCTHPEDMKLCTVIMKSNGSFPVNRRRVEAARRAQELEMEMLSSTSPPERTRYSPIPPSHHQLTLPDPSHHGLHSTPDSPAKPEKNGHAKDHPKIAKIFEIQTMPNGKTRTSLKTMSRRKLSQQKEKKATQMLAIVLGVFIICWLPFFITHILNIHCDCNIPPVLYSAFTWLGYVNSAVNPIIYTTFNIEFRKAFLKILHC

Row | EC50 [1] [µM] | EC50 [2] [µM] | IC50 [3] [µM] | IC50 [4] [µM] | Structure (SMILES)
1 | > 30 | 1 to 10 | 1 to 10 | 1 to 10 | COc1cc(F)c(F)cc1OCCN1CCC(C)(Oc2ccc(Cl)cc2)CC1 [Compound 189, 4-(4-chlorophenoxy)-1-(2-(4,5-difluoro-2-methoxyphenoxy)ethyl)-4-methylpiperidine]
2 | > 30 | < 0.1 | 1 to 10 | > 30 | CC1(Oc2cccc(Cl)c2)CCN(CCOc2ccccc2)C1 (centres unmarked) [Example 42, 3-(3-chlorophenoxy)-3-methyl-1-(2-phenoxyethyl)pyrrolidine]
3 | 1 to 10 | 0.1 to 1 | 10 to 30 | > 30 | CC1(O)CCN(CCOc2ccccc2)CC1 [Compound 130, 4-Methyl-1-(2-phenoxyethyl)piperidin-4-ol]
4 | > 30 | 1 to 10 | 0.1 to 1 | < 0.1 | CC1(Oc2ccc(Cl)cc2)CCN(CCOc2ncccc2C(F)(F)F)CC1 [Compound 162, 2-(2-(4-(4-chlorophenoxy)-4-methylpiperidin-1-yl)ethoxy)-3-(trifluoromethyl)pyridine]
5 | > 30 | 0.1 to 1 | 1 to 10 | > 30 | CC1(Oc2ccccc2Cl)CCN(CCOc2ccccc2)C1 (centres unmarked) [Example 47, 3-(2-chlorophenoxy)-3-methyl-1-(2-phenoxyethyl)pyrrolidine]
6 | > 30 | > 30 | 1 to 10 | 0.1 to 1 | CN(CCN1CCC(C)(Oc2ccc(Cl)cc2)CC1)c1ccccc1C(F)(F)F [Compound 169, N-(2-(4-(4-chlorophenoxy)-4-methylpiperidin-1-yl)ethyl)-N-methyl-2-(trifluoromethyl)aniline]
7 | > 30 | < 0.1 | 1 to 10 | 0.1 to 1 | CC1(Oc2ccc(Cl)cc2)CCN(CCOc2ccc(F)cc2)C1 (centres unmarked) [Compound 14, 3-(4-chlorophenoxy)-1-(2-(4-fluorophenoxy)ethyl)-3-methylpyrrolidine]
8 | 1 to 10 | 1 to 10 | 1 to 10 | > 30 | CNCC1(C)CCN(C[C@H]2COc3ccccc3O2)CC1 [Compound 207, (S)-1-(1-((2,3-dihydrobenzo[b][1,4]dioxin-2-yl)methyl)-4-methylpiperidin-4-yl)-N-methylmethanamine]
9 | 0.1 to 1 | < 0.1 | > 30 | > 30 | CC1(Oc2ccc(Cl)cc2)CCN(CCOc2cccc(F)c2C(F)(F)F)CC1 [Compound 156, 4-(4-chlorophenoxy)-1-(2-(3-fluoro-2-(trifluoromethyl)phenoxy)ethyl)-4-methylpiperidine]
10 | > 30 | > 30 | 1 to 10 | 0.1 to 1 | CC1(Oc2ccc(Cl)cc2)CCN(CCCCOc2ccccc2)C1 (centres unmarked) [Compound 3, 3-(4-chlorophenoxy)-3-methyl-1-(4-phenoxybutyl)pyrrolidine]
11 | > 30 | < 0.1 | 0.1 to 1 | < 0.1 | COc1ccccc1OCCN1CCC(C)(Oc2ccccc2)CC1 [Example 72, 1-(2-(2-Methoxyphenoxy)ethyl)-4-methyl-4-phenoxypiperidine]
12 | < 0.1 | < 0.1 | < 0.1 | > 30 | CC1(Oc2ccccc2)CCN(CCOc2ccccc2C#N)CC1 [Example 109, 2-(2-(4-methyl-4-phenoxypiperidin-1-yl)ethoxy)benzonitrile]
13 | > 30 | 0.1 to 1 | 10 to 30 | 1 to 10 | CNC(=O)C1(C)CCN(CC2COc3ccccc3O2)CC1 (single isomer, unassigned) [Compound 202a, 1-((2,3-dihydrobenzo[b][1,4]dioxin-2-yl)methyl)-N,4-dimethylpiperidine-4-carboxamide]
14 | < 0.1 | < 0.1 | > 30 | > 30 | CC1(Oc2ccccc2)CCN(CCOc2ccccc2F)CC1 [Example 87, 1-(2-(2-fluorophenoxy)ethyl)-4-methyl-4-phenoxypiperidine]
15 | > 30 | > 30 | 1 to 10 | 1 to 10 | CC1(C(=O)Nc2ccccc2)CCN(CC2COc3ccccc3O2)CC1 (single isomer, unassigned) [Compound 204a, 1-((2,3-dihydrobenzo[b][1,4]dioxin-2-yl)methyl)-4-methyl-N-phenylpiperidine-4-carboxamide]
16 | > 30 | > 30 | 10 to 30 | 0.1 to 1 | Clc1ccc2c(c1)C[C@@H]1CN(CCOc3ccccc3)C[C@H]1O2 [Compound 145, (3aS,9aR)-7-chloro-2-(2-phenoxyethyl)-1,2,3,3a,9,9a-hexahydrochromeno[2,3-c]pyrrole]

Row | EC50 [1] [µM] | EC50 [2] [µM] | IC50 [3] [µM] | IC50 [4] [µM] | Structure (SMILES)
17 | > 30 | 10 to 30 | 10 to 30 | > 30 | FC(F)(F)c1ccccc1OCCN1CCC2(CC1)CC2c1ccc(Cl)cc1 (single isomer, unassigned) [Compound 216b, 1-(4-chlorophenyl)-6-(2-(2-(trifluoromethyl)phenoxy)ethyl)-6-azaspiro[2.5]octane]
18 | > 30 | > 30 | 0.1 to 1 | < 0.1 | FC(F)(F)c1ccccc1OCCN1CCC2(CC1)CCN2c1ccc(Cl)cc1 [Compound 136, 1-(4-Chlorophenyl)-7-(2-(2-(trifluoromethyl)phenoxy)ethyl)-1,7-diazaspiro[3.5]nonane]
19 | > 30 | < 0.1 | 1 to 10 | 1 to 10 | CC1(Oc2ccc(Cl)cc2)CCN(CCOc2ccc(Cl)cc2)C1 (centres unmarked) [Compound 15, 3-(4-chlorophenoxy)-1-(2-(4-chlorophenoxy)ethyl)-3-methylpyrrolidine]
20 | 0.1 to 1 | < 0.1 | > 30 | > 30 | CC1(Oc2ccc(N)cc2)CCN(CCOc2ccccc2)C1 (centres unmarked) [Example 44, 4-((3-methyl-1-(2-phenoxyethyl)pyrrolidin-3-yl)oxy)aniline]
21 | > 30 | > 30 | 1 to 10 | 1 to 10 | CC1(O)CCN(CCOc2ccccc2C(F)(F)F)C1 (centres unmarked) [Compound 139, 3-Methyl-1-(2-(2-(trifluoromethyl)phenoxy)ethyl)pyrrolidin-3-ol]
22 | > 30 | 0.1 to 1 | 1 to 10 | 0.1 to 1 | CC1(Oc2ccc(Cl)cc2)CCN(CCOc2cccc3ccccc23)C1 (centres unmarked) [Compound 36, 3-(4-chlorophenoxy)-3-methyl-1-(2-(naphthalen-1-yloxy)ethyl) pyrrolidine]
23 | > 30 | < 0.1 | 1 to 10 | > 30 | Cc1ccccc1OC1(C)CCN(CCOc2ccccc2)C1 (centres unmarked) [Example 85, 3-Methyl-1-(2-phenoxyethyl)-3-(o-tolyloxy)pyrrolidine]
24 | > 30 | > 30 | 1 to 10 | 0.1 to 1 | COc1ccccc1OCCN1CCC(C)(O)CC1 [Compound 301, reference compound]
25 | > 30 | 0.1 to 1 | 1 to 10 | > 30 | CC1(Oc2cccc([N+](=O)[O-])c2)CCN(CCOc2ccccc2)C1 (centres unmarked) [Example 40, 3-Methyl-3-(3-nitrophenoxy)-1-(2-phenoxyethyl)pyrrolidine]
26 | > 30 | > 30 | 1 to 10 | 1 to 10 | CC1(Oc2ccc(Cl)cc2)CCN(CCNc2ccccc2C(F)(F)F)CC1 [Compound 168, N-(2-(4-(4-chlorophenoxy)-4-methylpiperidin-1-yl)ethyl)-2-(trifluoromethyl) aniline]
27 | > 30 | 10 to 30 | 10 to 30 | > 30 | CC1(Oc2ccc(Cl)cc2)CCN(CCOC2CCCCC2)CC1 [Compound 143, 4-(4-chlorophenoxy)-1-(2-(cyclohexyloxy)ethyl)-4-methylpiperidine]
28 | > 30 | > 30 | 1 to 10 | 0.1 to 1 | CC1(Oc2ccc(Cl)cc2)CCN(CCOc2cccc(C(F)(F)F)c2)C1 (centres unmarked) [Compound 13, 3-(4-chlorophenoxy)-3-methyl-1-(2-(3-(trifluoromethyl)phenoxy)ethyl) pyrrolidine]
29 | 1 to 10 | 0.1 to 1 | > 30 | > 30 | CC1(Oc2ccc(Cl)cc2)CCN(CCOc2ccc(C(F)(F)F)nc2)C1 (centres unmarked) [Compound 30, 5-(2-(3-(4-Chlorophenoxy)-3-methylpyrrolidin-1-yl)ethoxy)-2-(trifluoromethyl)pyridine]
30 | > 30 | < 0.1 | 1 to 10 | 1 to 10 | CC1(Oc2ccccc2C(F)(F)F)CCN(CCOc2ccccc2)C1 (centres unmarked) [Example 56, 3-Methyl-1-(2-phenoxyethyl)-3-(2-(trifluoromethyl)phenoxy) pyrrolidine]
31 | 1 to 10 | 0.1 to 1 | 1 to 10 | 0.1 to 1 | CC1(Oc2ccc(Cl)cc2)CCN(CCOc2cn[nH]c2)CC1 [Compound 186, 1-(2-((1H-pyrazol-4-yl)oxy)ethyl)-4-(4-chlorophenoxy)-4-methylpiperidine]
32 | 0.1 to 1 | < 0.1 | > 30 | > 30 | CC1(Oc2ccc(Cl)cc2)CCN(CCOc2ccc(Cl)cc2)CC1 [Compound 151, 4-(4-chlorophenoxy)-1-(2-(4-chlorophenoxy)ethyl)-4-methylpiperidine]
